Results on 27 compounds are retold here after publication PMC6523444, “Antioxidant Activities of Alkyl Substituted Pyrazine Derivatives of Chalcones—In Vitro and In Silico Study” (Antioxidants, 2019).

One series has as its system aldose reductase ALR2. Also noted: method as in doi:10.1007/s00706-018-2146-6. Conditions: cited from earlier work.
Series [1] is described as follows: MTS cytotoxicity assay, overnight, HepG2. In kind it is cell-based. Conditions: human, HepG2 cells, concentration range 100–0.2 µM. The method, then:
(§1) Adherent liver hepatocellular carcinoma cell line HepG2 (ATCC, HB-8065) and human acute monocytic leukemia cell line in suspension THP-1 (ATCC, TIB-202) were purchased from American Type Culture Collection (ATCC, Manassas, VA, USA). Cell lines were maintained in complete DMEM/F12 medium (Sigma, D8437, St. Louis, MO, USA) and complete RPMI1640 (Sigma, R7388, St. Louis, MO, USA) respectively, supplemented with 10% Fetal Calf Serum (FCS, Sigma, F7524, St. Louis, MO, USA) at 37 °C in 5% CO2 atmosphere.
(§2) A cytotoxicity assay was performed using MTS CellTiter 96 AQueous One Solution Cell Proliferation Assay (Promega, G3580, Madison, WI, USA). Double dilutions of compounds were prepared in the concentration range of 100–0.2 µM within microplate wells. In each well, 5 × 10^4 cells were added and the plates were incubated overnight at 37 °C in 5% CO2 atmosphere. Following this, 10 µL of MTS (3-(4,5-dimethylthiazol-2-yl)-5-(3-carboxymethoxyphenyl)-2-(4-sulfophenyl)-2H -tetrazolium) reagent was dispensed per well and the plates were incubated for 1–6 h at 37 °C in 5% CO2 atmosphere. Control wells consisted of media only (blank) or cells with 1% DMSO added (control). The absorbance was recorded at 490 nm using a Wallac Victor2 microplate reader (PerkinElmer, Waltham, MA, USA). Results were analyzed in GraphPad Prism software (GraphPad Software, San Diego, CA, USA).
A general note: Formazan colour is commonly taken as a measure of viable cells.

A short description of series [2]: DPPH• radical scavenging assay. The settings on record: 100 µM DPPH•, 30 min, room temperature, dark; read-out: DPPH● radical scavenging (RS) activity IC50. The method, then:
Vitamin C (Acros Organics, Geel, Belgium) was used as a standard antioxidant control and was prepared in the same way as tested compounds. Dilutions of tested compounds and vitamin C were prepared in a final concentration range of 1 mM–0.01 μM. One milliliter of compound solution was added to 1 mL of freshly prepared DPPH• solution (3.9 mg/50 mL ethanol; final concentration of 100 µM) and the reaction mixture was incubated in the dark at room temperature for 30 min. Absorbance was recorded at 540 nm using a 96-well Wallac Victor2 plate reader. Neutralization of DPPH• radical by a compound was calculated according to the following formula:RS activity (%) = [(A0 − A1)/A0] × 100(1) where A0/A1 is the control/sample absorbance. The results were averages of three measurements. The IC50 value was calculated using GraphPad Prism software (GraphPad Software, San Diego, CA, USA).

The nature of series [3]: MTS cytotoxicity assay, overnight, THP-1. In kind it is cell-based, human. The settings on record: human, THP-1 cells, overnight, concentration range 100–0.2 µM. As to the method:
as §1, §2

Series [4] relates to cell lines A549, PC3, MCF-7, HT-29 and WRL68. Also on record: method as in PMID 22634834. The settings on record: cited from earlier work.
The test system of series [5] is THP-1 cells treated by H2O2. The series is described as follows: Growth of THP-1 cells pre- or post-treated with H2O2, trypan blue exclusion assay. The series is classed as cell-based, human. The settings on record: for Effect against cytotoxic / pro-oxidative activity of H2O2 on THP-1 cells: compound at DPPH• IC50 concentration, before or after 5 mM H2O2; for Recovery of THP-1 cells after initial damage: from the 48 h point, H2O2 plus compound. As to the method:
The substances without cytotoxic effects and with RS activity were tested for antioxidant potential at the cellular level using THP-1 cells treated by H2O2 [28]. The cells were exposed to the IC50 concentrations of the compounds determined by the DPPH• assay. Compounds were applied 30 min either before or after exposure to 5 mM of H2O2, which is equivalent to the cytotoxic ED50 dose of H2O2 for the THP-1 cells. The cell growth was analyzed every 24 h, via the trypan blue exclusion assay using a Bürker-Türk hemocytometer (Brand GMBH + CO KG, Wertheim, Germany), during a 4-day period. All assays were carried out in triplicates. The comparison of mean values was done by the two-tailed Student’s t-test.
On the technique in general: The DPPH test is a chemical assay of radical scavenging.

On the set-up of series [6]: method as in doi:10.1627/jpi.51.298. Conditions: oxygen atmosphere, 50 °C, compared with para-coumaric acid fragment; cited from earlier work.
Another series concerns THP-1. The series is described as follows: MTS cytotoxicity assay, overnight, THP-1. In kind it is cell-based, human. The settings on record: up to 100 μM overnight. As to the method: as §1, §2
The next series deals with THP-1 cells. The settings on record: cited from earlier work.

Some results are limits rather than exact numbers.

As a reminder, the IC50 is the concentration that gives 50% inhibition. On to `O=C(/C=C/c1cccc(O)c1)c1cnccn1` [Compound 2a], for which the ALR2 inhibition activity entry in the series on aldose reductase ALR2 is recorded as “moderate ALR2 inhibition activity”. Also, the IC50 in [1] was 100 µM; in series [2], more than 1000 µM; in series [3], 50 µM.

On to `O=C(/C=C/c1cccc(O)c1)c1ccccc1` [Compound 2], for which the results for the IC50 in series [1], in series [2] and in [3] were more than 100 µM, more than 1000 µM and 51 µM, respectively.

Take `CCCCc1cnc(C(=O)/C=C/c2ccccc2O)cn1` [Compound 1d]: the IC50 is 86 µM in series [1], more than 1000 µM in series [2] and 27 µM in series [3].

For `CCCc1cnc(C(=O)/C=C/c2ccc(O)cc2)cn1` [Compound 3b], the IC50 in [1] was more than 100 µM; in [3], 94 µM.

For `CCCCc1cnc(C(=O)/C=C/c2cccc(O)c2)cn1` [Compound 2d], the IC50 in [1] is more than 100 µM; in series [2], more than 1000 µM; in [3], 67 µM.

As to `COc1cc(/C=C/C(=O)c2cnc(C(C)(C)C)cn2)ccc1O` [Compound 4f], the IC50 is more than 100 µM in series [1] and 36 µM in series [3].

Consider `COc1cc(/C=C/C(=O)c2ccccc2)ccc1O` [Compound 4], for which the IC50 in series [1] and in [3] was more than 100 µM throughout.

As to `CC(C)(C)c1cnc(C(=O)/C=C/c2cccc(O)c2)cn1` [Compound 2f], the half-inhibitory concentration (IC50) in series [1] and in [3] was more than 100 µM in each case.

With `O=C(/C=C/c1ccc(O)cc1)c1ccccc1` [Compound 3], the ALR2 inhibition activity result with aldose reductase ALR2 is recorded as “comparable ALR2 inhibition”. Moreover, the “Cytotoxicity against A549, PC3, MCF-7, HT-29 and WRL68” value in series [4] is given as “significant cytotoxicity”. The IC50 in series [1] is more than 100 µM; in series [2], more than 1000 µM; in [3], more than 100 µM.

For the compound `COc1cc(/C=C/C(=O)c2cnccn2)ccc1O` [Compound 4a], the “Effect against cytotoxic / pro-oxidative activity of H2O2 on THP-1 cells” value in [5] is on record as “lowest effect”. Besides, the results for the IC50 in [1], in [2] and in series [3] were more than 100 µM, 186 µM and more than 100 µM, respectively. Also, the “RS activity in styrene auto-oxidation” value in series [6] is recorded as “significant RS activity”. The “Cytotoxicity on THP-1 cells, in words” value in the series with THP-1 is listed as “non-toxic”.

As to `COc1cc(/C=C/C(=O)c2cnc(C(C)C)cn2)ccc1O` [Compound 4c], the “Attenuation of H2O2 effect on THP-1 cells, compound added before H2O2” value in series [5] (compound at DPPH• IC50 concentration 30 min before 5 mM H2O2, 4 days) was “most efficient reduction of cytotoxic effect of H2O2”. Moreover, the “Effect against cytotoxic / pro-oxidative activity of H2O2 on THP-1 cells” value in [5] is on record as “greater attenuation of H2O2 effects”. In addition, the “Recovery of THP-1 cells after initial damage” value in series [5] was “considerably greater”. The IC50 in [1] is more than 100 µM; in [2] it was 39 µM; in series [3], more than 100 µM. In addition, the “Cytotoxicity on THP-1 cells, in words” value in the series on THP-1 was “non-toxic”.

Turning to `COc1cc(/C=C/C(=O)c2cnc(CC(C)C)cn2)ccc1O` [Compound 4e], the “Effect of the pure substance on the growth of THP-1 cells” value in series [5] (compound alone at its DPPH• IC50 concentration, 96 h, Figure 2a) is given as “no considerable effects”. Also, in [5], the “Effect against cytotoxic / pro-oxidative activity of H2O2 on THP-1 cells” value is given as “greater attenuation of H2O2 effects”. Also, in series [5], the “Recovery of THP-1 cells after initial damage” value is “considerably greater”. For the same compound, the IC50 in series [1] is more than 100 µM; in series [2], 46 µM; in series [3], more than 100 µM. For the same compound, the “Cytotoxicity on THP-1 cells, in words” value in the series with THP-1 is given as “non-toxic”.

As for `CCCc1cnc(C(=O)/C=C/c2ccccc2O)cn1` [Compound 1b], the IC50 in series [1] and in series [3] was more than 100 µM each time.

With `CC(C)Cc1cnc(C(=O)/C=C/c2ccc(O)cc2)cn1` [Compound 3e], the IC50 in series [1] and in series [3] was more than 100 µM in each case.

Turning to `CCCCc1cnc(C(=O)/C=C/c2ccc(O)cc2)cn1` [Compound 3d], the IC50 in [1] was more than 100 µM; in series [2], more than 1000 µM; in series [3], 83 µM.

For `O=C(/C=C/c1ccccc1O)c1cnccn1` [Compound 1a], the results for the IC50 in [1], in series [2] and in [3] were more than 100 µM, more than 1000 µM and 40 µM, respectively. Moreover, the “RS activity in styrene auto-oxidation” value in [6] is “significant RS activity”.

`CC(C)Cc1cnc(C(=O)/C=C/c2ccccc2O)cn1` [Compound 1e]: the values for the IC50 in series [1] and in series [3] were more than 100 µM and 94 µM, respectively.

`CC(C)Cc1cnc(C(=O)/C=C/c2cccc(O)c2)cn1` [Compound 2e]: the IC50 in series [1] and in [3] was more than 100 µM throughout.

For `CC(C)c1cnc(C(=O)/C=C/c2ccccc2O)cn1` [Compound 1c], the IC50 in series [1] was more than 100 µM; in [2], more than 1000 µM; in [3] it was 96 µM.

As to `CC(C)(C)c1cnc(C(=O)/C=C/c2ccc(O)cc2)cn1` [Compound 3f], the IC50 in series [1] and in series [3] was more than 100 µM each time.

Take `CC(C)c1cnc(C(=O)/C=C/c2ccc(O)cc2)cn1` [Compound 3c]: the figures for the IC50 in series [1], in [2] and in [3] were more than 100 µM, more than 1000 µM and 78 µM, respectively.

Take `OO` [Compound H2O2, hydrogen peroxide]: in the series with THP-1 cells, the “Cytotoxic ED50 dose for THP-1 cells” value was 5000 µM.

Take `O=C(/C=C/c1ccccc1O)c1ccccc1` [Compound 1]: the results for the IC50 in [1], in [2] and in series [3] were more than 100 µM, more than 1000 µM and 70 µM, respectively.

`CC(C)c1cnc(C(=O)/C=C/c2cccc(O)c2)cn1` [Compound 2c]: the results for the IC50 in series [1], in series [2] and in [3] were 97 µM, more than 1000 µM and 83 µM, respectively.

Regarding `CC(C)(C)c1cnc(C(=O)/C=C/c2ccccc2O)cn1` [Compound 1f], the IC50 in series [1] and in series [3] was more than 100 µM throughout.

With `O=C(/C=C/c1ccc(O)cc1)c1cnccn1` [Compound 3a], in the series with aldose reductase ALR2, the ALR2 inhibition activity entry was “moderate ALR2 inhibition activity”. For the same compound, the IC50 in series [1] was more than 100 µM; in [2] it was more than 1000 µM; in [3], 97 µM. For the same compound, the “RS activity in styrene auto-oxidation” value in series [6] is “significant RS activity”.

Turning to `CCCc1cnc(C(=O)/C=C/c2cccc(O)c2)cn1` [Compound 2b], the results for the IC50 in series [1] and in series [3] were more than 100 µM and 48 µM, respectively.
